Experimental data as given in patent US9493448B2, “Cycloalkane derivatives” (Daiichi Sankyo Company, Limited, priority 2012, dated 2016).

Tests used:
[1] = biological target: hNav 1.7 (Homo sapiens (Human), UniProt Q15858); test: Electrophysiological evaluation, automated patch clamp IonWorks Quattro (Population Patch Clamp mode); type: cell-based; conditions: HEK293A cells stably expressing hNav 1.7/β1/β2; response to second depolarization pulse, pre-pulse potential set to V1/2; read-out: hNav1.7 IC50
[2] = system: mice and rats affected by thermal hyperalgesia; test: Thermal hyperalgesia assay; type: in vivo; conditions: oral administration, constant dose, against the vehicle treatment group; latency to escape behaviors after thermal stimulation of hind paw;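 further: measurement times set by the study director and not disclosed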

Chain of hNav 1.7 (Q15858 whole entry): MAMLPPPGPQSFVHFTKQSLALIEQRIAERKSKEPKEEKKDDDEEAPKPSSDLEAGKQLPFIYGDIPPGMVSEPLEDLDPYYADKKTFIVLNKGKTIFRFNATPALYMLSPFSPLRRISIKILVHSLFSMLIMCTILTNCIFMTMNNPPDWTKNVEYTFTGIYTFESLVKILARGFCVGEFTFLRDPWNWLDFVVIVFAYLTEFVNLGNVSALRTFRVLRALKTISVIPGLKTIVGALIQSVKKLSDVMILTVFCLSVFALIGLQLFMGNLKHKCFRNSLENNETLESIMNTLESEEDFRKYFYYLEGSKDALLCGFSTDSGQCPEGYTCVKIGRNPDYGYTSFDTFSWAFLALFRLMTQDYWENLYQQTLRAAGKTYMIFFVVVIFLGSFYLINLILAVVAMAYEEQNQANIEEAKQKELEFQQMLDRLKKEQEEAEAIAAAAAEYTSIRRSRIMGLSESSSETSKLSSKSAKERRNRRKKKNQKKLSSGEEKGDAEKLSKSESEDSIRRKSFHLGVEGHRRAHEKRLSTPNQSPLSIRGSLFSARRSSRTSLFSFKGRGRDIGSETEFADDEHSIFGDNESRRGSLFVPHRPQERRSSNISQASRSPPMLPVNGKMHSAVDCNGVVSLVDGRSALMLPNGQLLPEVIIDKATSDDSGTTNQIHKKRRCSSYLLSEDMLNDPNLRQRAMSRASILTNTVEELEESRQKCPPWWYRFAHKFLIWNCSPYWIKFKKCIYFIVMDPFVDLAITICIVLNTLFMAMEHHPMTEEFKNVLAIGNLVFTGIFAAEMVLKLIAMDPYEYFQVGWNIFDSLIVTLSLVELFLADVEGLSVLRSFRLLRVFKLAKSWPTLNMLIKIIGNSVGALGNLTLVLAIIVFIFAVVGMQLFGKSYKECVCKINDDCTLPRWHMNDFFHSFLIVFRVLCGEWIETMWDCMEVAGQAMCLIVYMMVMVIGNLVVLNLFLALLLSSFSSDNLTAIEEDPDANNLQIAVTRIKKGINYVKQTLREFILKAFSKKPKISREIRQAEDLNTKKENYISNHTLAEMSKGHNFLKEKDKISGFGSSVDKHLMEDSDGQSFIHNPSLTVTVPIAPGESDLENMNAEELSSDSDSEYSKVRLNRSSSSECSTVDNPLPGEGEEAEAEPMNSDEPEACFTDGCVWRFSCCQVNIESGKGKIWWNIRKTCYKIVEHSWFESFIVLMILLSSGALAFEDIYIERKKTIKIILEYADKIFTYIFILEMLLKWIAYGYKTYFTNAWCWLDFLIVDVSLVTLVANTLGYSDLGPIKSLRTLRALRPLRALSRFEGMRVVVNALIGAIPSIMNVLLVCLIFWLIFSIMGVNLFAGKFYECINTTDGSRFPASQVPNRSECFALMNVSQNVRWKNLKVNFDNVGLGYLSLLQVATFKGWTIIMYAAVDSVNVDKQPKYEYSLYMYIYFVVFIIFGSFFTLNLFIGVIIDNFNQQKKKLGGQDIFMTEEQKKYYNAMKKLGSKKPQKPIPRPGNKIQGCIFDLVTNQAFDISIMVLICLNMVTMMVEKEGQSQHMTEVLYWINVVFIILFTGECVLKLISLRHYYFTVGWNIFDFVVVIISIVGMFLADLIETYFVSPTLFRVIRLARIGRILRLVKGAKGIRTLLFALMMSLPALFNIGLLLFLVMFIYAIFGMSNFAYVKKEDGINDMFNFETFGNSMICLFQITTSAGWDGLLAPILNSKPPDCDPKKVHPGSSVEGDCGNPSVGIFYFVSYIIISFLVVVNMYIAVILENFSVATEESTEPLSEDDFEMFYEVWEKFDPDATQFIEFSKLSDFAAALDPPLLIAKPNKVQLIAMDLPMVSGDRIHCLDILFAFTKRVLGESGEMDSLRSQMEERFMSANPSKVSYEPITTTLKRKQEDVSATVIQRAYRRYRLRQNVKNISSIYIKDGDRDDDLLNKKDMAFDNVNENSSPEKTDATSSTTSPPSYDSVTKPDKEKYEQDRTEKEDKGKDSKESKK
Chain of hNav 1.7 (Q07699 19-218 partner): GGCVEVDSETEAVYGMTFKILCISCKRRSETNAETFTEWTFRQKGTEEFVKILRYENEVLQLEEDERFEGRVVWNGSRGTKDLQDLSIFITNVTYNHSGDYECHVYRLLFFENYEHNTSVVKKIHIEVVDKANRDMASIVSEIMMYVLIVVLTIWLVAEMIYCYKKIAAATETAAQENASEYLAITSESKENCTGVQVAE
Chain of hNav 1.7 (O60939 30-215 partner): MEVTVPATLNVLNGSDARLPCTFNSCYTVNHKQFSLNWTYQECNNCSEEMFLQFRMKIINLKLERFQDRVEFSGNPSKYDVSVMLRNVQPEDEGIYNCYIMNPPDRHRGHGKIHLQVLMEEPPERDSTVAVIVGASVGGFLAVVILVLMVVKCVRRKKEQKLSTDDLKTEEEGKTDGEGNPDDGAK

Row | SMILES | IC50 [1] [nM] | Ratio of improving pain score (%) [2]
1 | Cn1nccc1[C@H]1CCC[C@@H]1Oc1ccc(S(=O)(=O)Nc2ccncn2)cc1Cl (relative stereo) [Example 23, 3-Chloro-4-({[(1S*,2R*)-2-(1-methyl-1H-pyrazol-5-yl)cyclopentyl]oxy}-N-(pyrimidin-4-yl)benzenesulfonamide] | 130 | A (“A” when the rate was 61 to 100%)
2 | Cc1cc(S(=O)(=O)Nc2ccncn2)c(F)cc1O[C@H]1CCCC[C@@H]1c1cn[nH]c1 (relative stereo) [Example 81, 2-Fluoro-5-methyl-4-{[(1S*,2R*)-2-(1H-pyrazol-4-yl)cyclohexyl]oxy}-N-(pyrimidin-4-yl)benzenesulfonamide] | 150 | C (“C” when the rate was 0 to 30%)
3 | Cn1nccc1[C@H]1CCCC[C@@H]1Oc1ccc(S(=O)(=O)Nc2ccncn2)c(F)c1F (relative stereo) [Example 40, 2,3-Difluoro-4-{[(1S*,2R*)-2-(1-methyl-1H-pyrazol-5-yl)cyclohexyl]oxy}-N-(pyrimidin-4-yl)benzenesulfonamide] | 330 | A (“A” when the rate was 61 to 100%)
4 | Cn1nccc1[C@H]1CCC[C@@H]1Oc1ccc(S(=O)(=O)Nc2ccncn2)c(F)c1Cl (relative stereo) [Example 80, 3-Chloro-2-fluoro-4-{[(1S*,2R*)-2-(1-methyl-1H-pyrazol-5-yl)cyclopentyl]oxy}-N-(pyrimidin-4-yl)benzenesulfonamide] | 86 | C (“C” when the rate was 0 to 30%)
5 | Cc1cc(S(=O)(=O)Nc2ccncn2)c(F)cc1O[C@H]1CC(F)(F)CC[C@@H]1c1cn[nH]c1 [Example 143, 4-{[(1S,2R)-5,5-Difluoro-2-(1H-pyrazol-4-yl)cyclohexyl]oxy}-2-fluoro-5-methyl-N-(pyrimidin-4-yl)benzenesulfonamide] | 21 | B (“B” when the rate was 31 to 60%)
6 | Cc1cc(S(=O)(=O)Nc2ccncn2)c(F)cc1O[C@H]1CCC[C@@H]1c1ccn[nH]1 [Example 148, 2-Fluoro-5-methyl-4-{[(1S,2R)-2-(1H-pyrazol-5-yl)cyclopentyl]oxy}-N-(pyrimidin-4-yl)benzenesulfonamide] | 18 | B (“B” when the rate was 31 to 60%)
7 | CCn1nccc1[C@@H]1CCC[C@H]1Oc1ccc(S(=O)(=O)Nc2ccncn2)c(F)c1F [Example 118, 4-{[(1R,2S)-2-(1-Ethyl-1H-pyrazol-5-yl)cyclopentyl]oxy}-2,3-difluoro-N-(pyrimidin-4-yl)benzenesulfonamide] | 21000 | A (“A” when the rate was 61 to 100%)
8 | O=S(=O)(Nc1ccncn1)c1ccc(O[C@H]2CCCC[C@@H]2c2cn[nH]c2)cc1F (relative stereo) [Example 108, 2-Fluoro-4-{[(1S*,2R*)-2-(1H-pyrazol-4-yl)cyclohexyl]oxy}-N-(pyrimidin-4-yl)benzenesulfonamide] | 1700 | A (“A” when the rate was 61 to 100%)
9 | Cc1cc(S(=O)(=O)Nc2nncs2)c(F)cc1O[C@H]1CC(F)(F)CC[C@@H]1c1ccnn1C (relative stereo) [Example 125, 4-{[(1S*,2R*)-5,5-Difluoro-2-(1-methyl-1H-pyrazol-5-yl)cyclohexyl]oxy}-2-fluoro-5-methyl-N-(1,3,4-thiadiazol-2-yl)benzenesulfonamide] | 200 | C (“C” when the rate was 0 to 30%)
10 | Cc1cc(S(=O)(=O)Nc2ccncn2)c(F)cc1O[C@H]1CCC[C@@H]1c1c[nH]nc1N (relative stereo) [Example 85, 4-{[(1S*,2R*)-2-(3-Amino-1H-pyrazol-4-yl)cyclopentyl]oxy}-2-fluoro-5-methyl-N-(pyrimidin-4-yl)benzenesulfonamide] | 170 | B (“B” when the rate was 31 to 60%)
11 | CC(=O)Nc1n[nH]cc1[C@H]1CCCC[C@@H]1Oc1cc(F)c(S(=O)(=O)Nc2ccncn2)cc1C (relative stereo) [Example 96, N-(4-{(1R*,2S*)-2-[5-fluoro-2-methyl-4-((pyrimidin-4-yl)sulfamoyl)phenoxy]cyclohexyl}-1H-pyrazol-3-yl)acetamide] | 250 | A (“A” when the rate was 61 to 100%)
12 | O=S(=O)(Nc1ccncn1)c1cc(F)c(O[C@H]2CCCC[C@@H]2c2cn[nH]c2)cc1F (relative stereo) [Example 33, 2,5-Difluoro-4-{[(1S*,2R*)-2-(1H-pyrazol-4-yl)cyclohexyl]oxy}-N-(pyrimidin-4-yl)benzenesulfonamide] | 300 | A (“A” when the rate was 61 to 100%)
13 | Cn1nccc1[C@H]1C[C@H](O)CC[C@@H]1Oc1cc(F)c(S(=O)(=O)Nc2ccncn2)cc1Cl [Example 165, 5-Chloro-2-fluoro-4-{[(1S,2R,4R)-4-hydroxy-2-(1-methyl-1H-pyrazol-5-yl)cyclohexyl]oxy}-N-(pyrimidin-4-yl)benzenesulfonamide] | 40 | B (“B” when the rate was 31 to 60%)

More lines, main results first:

Row | IC50 [1] [nM] | SMILES | Ratio of improving pain score (%) [2]
14 | 14 | Cc1cc(S(=O)(=O)Nc2ccncn2)c(F)cc1O[C@H]1CCC(F)(F)C[C@@H]1c1ccnn1C (relative stereo) [Example 126, 4-{[(1S*,2R*)-4,4-Difluoro-2-(1-methyl-1H-pyrazol-5-yl)cyclohexyl]oxy}-2-fluoro-5-methyl-N-(pyrimidin-4-yl)benzenesulfonamide] | C (“C” when the rate was 0 to 30%)
15 | 660 | Cn1nccc1[C@H]1CCCCC[C@@H]1Oc1ccc(S(=O)(=O)Nc2ccncn2)c(F)c1 (relative stereo) [Example 58, 2-Fluoro-4-{[(1S*,2R*)-2-(1-methyl-1H-pyrazol-5-yl)cycloheptyl]oxy}-N-(pyrimidin-4-yl)benzenesulfonamide] | B (“B” when the rate was 31 to 60%)
16 | 320 | Cn1nccc1[C@H]1CC(F)(F)CC[C@@H]1Oc1cc(F)c(S(=O)(=O)Nc2ccncn2)cc1F (relative stereo) [Example 88, 4-{[(1S*,2R*)-4,4-Difluoro-2-(1-methyl-1H-pyrazol-5-yl)cyclohexyl]oxy}-2,5-difluoro-N-(pyrimidin-4-yl)benzenesulfonamide] | C (“C” when the rate was 0 to 30%)
17 | 200 | Cn1nccc1[C@H]1CC(F)(F)C[C@@H]1Oc1ccc(S(=O)(=O)Nc2ccncn2)c(F)c1F (relative stereo) [Example 132, 4-{[(1S*,2R*)-4,4-Difluoro-2-(1-methyl-1H-pyrazol-5-yl)cyclopentyl]oxy}-2,3-difluoro-N-(pyrimidin-4-yl)benzenesulfonamide] | A (“A” when the rate was 61 to 100%)
18 | 65 | Cn1nccc1[C@H]1CC(C)(C)C[C@@H]1Oc1cc(F)c(S(=O)(=O)Nc2ccncn2)cc1F (relative stereo) [Example 93, 4-{[(1S*,2R*)-4,4-Dimethyl-2-(1-methyl-1H-pyrazol-5-yl)cyclopentyl]oxy}-2,5-difluoro-N-(pyrimidin-4-yl)benzenesulfonamide] | B (“B” when the rate was 31 to 60%)
19 | 120 | Cn1nccc1[C@H]1CCC(F)(F)C[C@@H]1Oc1cc(F)c(S(=O)(=O)Nc2ccncn2)cc1F (relative stereo) [Example 47, 4-{[(1S*,2R*)-5,5-Difluoro-2-(1-methyl-1H-pyrazol-5-yl)cyclohexyl]oxy}-2,5-difluoro-N-(pyrimidin-4-yl)benzenesulfonamide] | A (“A” when the rate was 61 to 100%)
20 | 58 | Cn1nccc1[C@H]1CCC(F)(F)C[C@@H]1Oc1cc(F)c(S(=O)(=O)Nc2ccncn2)cc1Cl (relative stereo) [Example 141, 5-Chloro-4-{[(1S*,2R*)-5,5-difluoro-2-(1-methyl-1H-pyrazol-5-yl)cyclohexyl]oxy}-2-fluoro-N-(pyrimidin-4-yl)benzenesulfonamide] | A (“A” when the rate was 61 to 100%)
21 | 1800 | Cn1nccc1[C@H]1CCC[C@@H]1Oc1ccc(S(=O)(=O)Nc2ccncn2)c(F)c1 (relative stereo) [Example 29, 2-Fluoro-4-{[(1S*,2R*)-2-(1-methyl-1H-pyrazol-5-yl)cyclopentyl]oxy}-N-(pyrimidin-4-yl)benzenesulfonamide] | A (“A” when the rate was 61 to 100%)
22 | 120 | Cn1nccc1[C@H]1CCC[C@@H]1Oc1cc(F)c(S(=O)(=O)Nc2ccncn2)cc1C#N (relative stereo) [Example 62, 5-Cyano-2-fluoro-4-{[(1S*,2R*)-2-(1-methyl-1H-pyrazol-5-yl)cyclopentyl]oxy}-N-(pyrimidin-4-yl)benzenesulfonamide] | B (“B” when the rate was 31 to 60%)
23 | 24 | Cn1nccc1[C@H]1CC(F)(F)C[C@@H]1Oc1cc(F)c(S(=O)(=O)Nc2ccncn2)cc1Cl (relative stereo) [Example 146, 5-Chloro-4-{[(1S*,2R*)-4,4-difluoro-2-(1-methyl-1H-pyrazol-5-yl)cyclopentyl]oxy}-2-fluoro-N-(pyrimidin-4-yl)benzenesulfonamide] | C (“C” when the rate was 0 to 30%)
24 | 100 | Cn1nccc1[C@H]1CC(F)(F)CC[C@@H]1Oc1cc(F)c(S(=O)(=O)Nc2ccncn2)c(F)c1 (relative stereo) [Example 129, 4-{[(1S*,2R*)-4,4-Difluoro-2-(1-methyl-1H-pyrazol-5-yl)cyclohexyl]oxy}-2,6-difluoro-N-(pyrimidin-4-yl)benzenesulfonamide] | C (“C” when the rate was 0 to 30%)
25 | 51 | Cn1nccc1[C@H]1CC(F)(F)C[C@@H]1Oc1cc(F)c(S(=O)(=O)Nc2ccncn2)c(F)c1 (relative stereo) [Example 135, 4-{[(1S*,2R*)-4,4-Difluoro-2-(1-methyl-1H-pyrazol-5-yl)cyclopentyl]oxy}-2,6-difluoro-N-(pyrimidin-4-yl)benzenesulfonamide] | B (“B” when the rate was 31 to 60%)
